Assay results published in US8686050B2, “Diglycidic ether derivative therapeutics and methods for their use” (British Columbia Cancer Agency Branch, priority 2008, dated 2014).
Where “and” joins values, the source holds several entries; their conditions need not be identical. Identical values can stand only once. One block for each compound: values may come before it.

Columns and labels:
[1] = molecular target: T1, AR (Homo sapiens, UniProt P10275, T878A); assay: PSA (6.1 kb)-luciferase (p6.1luc) reporter in LNCaP cells; type: cell-based; parameters: LNCaP cells express endogenous AR and secrete prostate-specific antigen (PSA); endogenous in cells; host or cells: LNCaP
T1 sequence (P10275 1-920 T878A): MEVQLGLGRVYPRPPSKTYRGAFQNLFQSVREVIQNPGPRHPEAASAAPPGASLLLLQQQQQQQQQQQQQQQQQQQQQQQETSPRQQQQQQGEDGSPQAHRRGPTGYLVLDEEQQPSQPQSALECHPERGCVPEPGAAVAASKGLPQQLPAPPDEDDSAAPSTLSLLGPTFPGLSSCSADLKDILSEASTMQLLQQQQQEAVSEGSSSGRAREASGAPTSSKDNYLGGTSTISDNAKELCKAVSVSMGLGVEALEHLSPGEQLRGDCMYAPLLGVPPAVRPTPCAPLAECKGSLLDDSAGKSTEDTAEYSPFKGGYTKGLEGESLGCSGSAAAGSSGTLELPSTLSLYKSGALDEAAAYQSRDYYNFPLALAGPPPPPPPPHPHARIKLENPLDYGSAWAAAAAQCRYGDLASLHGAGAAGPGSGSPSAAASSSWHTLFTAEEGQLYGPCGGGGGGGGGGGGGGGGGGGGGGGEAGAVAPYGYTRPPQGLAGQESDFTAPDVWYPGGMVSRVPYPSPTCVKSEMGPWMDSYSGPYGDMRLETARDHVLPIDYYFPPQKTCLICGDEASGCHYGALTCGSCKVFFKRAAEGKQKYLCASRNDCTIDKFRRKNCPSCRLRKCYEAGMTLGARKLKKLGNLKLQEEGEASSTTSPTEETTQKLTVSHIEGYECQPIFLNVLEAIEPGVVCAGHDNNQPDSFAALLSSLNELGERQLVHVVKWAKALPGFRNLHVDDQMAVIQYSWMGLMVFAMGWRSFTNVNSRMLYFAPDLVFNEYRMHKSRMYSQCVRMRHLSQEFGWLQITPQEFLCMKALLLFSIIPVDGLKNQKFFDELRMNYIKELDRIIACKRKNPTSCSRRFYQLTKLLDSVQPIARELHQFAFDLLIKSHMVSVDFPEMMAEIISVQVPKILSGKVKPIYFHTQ
Text: LNCaP cells were employed initially for all experiments because they are well-differentiated human prostate cancer cells in which ligand-independent activation of the AR by FSK has been characterized (Nazareth et al 1996 J. Biol. Chem. 271, 19900-19907; and Sadar 1999 J. Biol. Chem. 274, 7777-7783). LNCaP cells express endogenous AR and secrete prostate-specific antigen (PSA) (Horoszewicz et al 1983 Cancer Res. 43, 1809-1818). LNCaP cells can be grown either as monolayers in cell culture or as tumors in the well-characterized xenograft model that progresses to androgen independence in castrated hosts (Sato et al 1996 J. Steroid Biochem. Mol. Biol. 58, 139-146; Gleave et al 1991 Cancer Res. 51, 3753-3761; Sato et al 1997 Cancer Res. 57, 1584-1589; and Sadar et al 2002 Mol. Cancer. Ther. 1(8), 629-637). […] Small molecules that specifically target the AR-NTD should have no effect on PC3 cells. This means that they should not alter the proliferation of PC3 cells if they specifically block the AR to mediate their inhibitory effects. R1881 was employed since it is stable and avoids problems associated with the labile physiological ligand dihydrotestosterone (DHT). Reporter specificity may be determined using several alternative reporter gene constructs. Some well characterized ARE-driven reporter gene constructs that have been used extensively are the PSA (6.1 kb) enhance/promoter which contains several AREs and is highly inducible by androgens as well as by FSK (Ueda et al 2002 A J. Biol. Chem. 277, 7076-7085) and the ARR3-thymidine kinase (tk)-luciferase, which is an artificial reporter construct that contains three tandem repeats of the rat probasin ARE1 and ARE2 regions upstream of a luciferase reporter (Snoek et al 1996 J. Steroid Biochem. Mol. Biol. 59, 243-250).
To ensure that the inhibitory effects of PNG 01-185 extract on endogenous PSA protein was at the transcriptional level, reporter gene constructs were also examined. Activation of the endogenous AR was measured in LNCaP human prostate cancer cells by measuring androgen-responsive reporters that contain androgen response elements (AREs) such as the PSA-luciferase reporter gene construct or the ARR3-luciferase reporter. LNCaP cells maintained as monolayers were transfected with PSA-luciferase and were used to screen the crude extracts prepared from marine sponges as well as some selected commercial compounds. […] R1881 (1 nM) was used to mediate ligand-dependent activation of the AR and concentrations of FSK (50 μM) were used to mediate ligand-independent activation of the AR.

[2] = molecular target: T2, Gal4 DBD-AR1-558 (AR NTD) (Homo sapiens, UniProt P10275); assay: Transactivation of the AR NTD (Gal4 DBD-AR1-558 with 5xGal4UAS-luciferase) in LNCaP cells; type: cell-based; details: for inhibition at 20 µM: read-out: inhibition of Fsk activation of Ga14ARN
T2 construct: cloning amino acids 1-558 of the human AR NTD into the C-terminus of Gal4 DBD; expressed in transfected cells; host or cells: LNCaP
T2 sequence (P10275 1-558): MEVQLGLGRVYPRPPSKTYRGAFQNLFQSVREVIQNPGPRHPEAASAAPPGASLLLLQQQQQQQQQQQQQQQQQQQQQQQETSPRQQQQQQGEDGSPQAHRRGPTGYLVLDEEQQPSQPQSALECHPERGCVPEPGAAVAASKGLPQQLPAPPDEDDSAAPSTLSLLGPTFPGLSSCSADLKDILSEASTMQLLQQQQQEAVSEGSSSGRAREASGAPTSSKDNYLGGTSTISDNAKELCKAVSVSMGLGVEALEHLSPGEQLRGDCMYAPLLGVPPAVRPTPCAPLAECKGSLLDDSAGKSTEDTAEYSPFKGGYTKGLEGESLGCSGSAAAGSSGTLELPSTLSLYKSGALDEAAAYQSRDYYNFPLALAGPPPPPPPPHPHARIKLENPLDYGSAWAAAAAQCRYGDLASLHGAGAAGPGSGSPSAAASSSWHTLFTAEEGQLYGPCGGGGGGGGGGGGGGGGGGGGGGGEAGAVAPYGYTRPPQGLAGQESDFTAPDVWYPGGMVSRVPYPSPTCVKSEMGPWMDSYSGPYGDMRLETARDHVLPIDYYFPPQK
Text: These fractions were next tested for their ability to inhibit the AR NTD. […] Extracts identified above were screened by such assays as well as some compounds purchased from commercial suppliers.
Expression vectors for these chimeric proteins were cotransfected into LNCaP cells with a reporter gene containing the Gal4-binding site as cis-acting elements (p5×Gal4UAS-TATA-luciferase).

[3] = molecular target: T1, AR; assay: ARR3-luciferase reporter in LNCaP cells; type: cell-based; parameters: LNCaP cells express endogenous AR and secrete prostate-specific antigen (PSA); endogenous in cells; host or cells: LNCaP; details: read-out: inhibition of R1881 activation of ARR31uc
Text: LNCaP cells were employed initially for all experiments because they are well-differentiated human prostate cancer cells in which ligand-independent activation of the AR by FSK has been characterized (Nazareth et al 1996 J. Biol. Chem. 271, 19900-19907; and Sadar 1999 J. Biol. Chem. 274, 7777-7783). LNCaP cells express endogenous AR and secrete prostate-specific antigen (PSA) (Horoszewicz et al 1983 Cancer Res. 43, 1809-1818). LNCaP cells can be grown either as monolayers in cell culture or as tumors in the well-characterized xenograft model that progresses to androgen independence in castrated hosts (Sato et al 1996 J. Steroid Biochem. Mol. Biol. 58, 139-146; Gleave et al 1991 Cancer Res. 51, 3753-3761; Sato et al 1997 Cancer Res. 57, 1584-1589; and Sadar et al 2002 Mol. Cancer. Ther. 1(8), 629-637). […] Reporter specificity may be determined using several alternative reporter gene constructs. […]
To ensure that the inhibitory effects of PNG 01-185 extract on endogenous PSA protein was at the transcriptional level, reporter gene constructs were also examined. Activation of the endogenous AR was measured in LNCaP human prostate cancer cells by measuring androgen-responsive reporters that contain androgen response elements (AREs) such as the PSA-luciferase reporter gene construct or the ARR3-luciferase reporter. […]

[4] = tested on: LNCaP xenografts; assay: LNCaP subcutaneous xenografts in castrated mice; type: in vivo, NOD-SCID male mice; details: castrated mice
Experimental: Six to eight-week old male athymic SCID mice were inoculated subcutaneously in the flank region via a 27-gauge needle with a 150 μl suspension of LNCaP or PC3 human prostate cancer cells (1×10^6 cells). The inoculations took place while the animal was under isofluorane anaesthesia. The tumor take rate is approximately 75%. Mice bearing tumors of 100 mm^3 were randomly assigned to treatment groups. Castration was performed as described below. Tumor volume (formula: L×W×H×0.5236) was measured in mice bearing LNCaP subcutaneous tumors that became palpable or visible and at least 40 mm^3. The animals were monitored daily and tumors were measured every 5 days.

[5] = LNCaP, at 12.5 μM, read-out: inhibition of R1881 activation of p6.1luc

inhibition at 12.5 µM [1, 5]: 20% | inhibition at 20 µM ([1]; LNCaP, at 20 μM, read-out: inhibition of R1881 activation of p6.1luc): 33% | inhibition at 20 µM ([2]; LNCaP): 7%
Compound: CC(C)(c1ccc(OCC(O)CO)cc1)c1ccc(OCC(O)CI)cc1 (centres unmarked)

inhibition at 50 µM [3]: 10%
Compound: CC(C)(c1ccc(OCC(O)CO)cc1)c1ccc(OCC(O)CO)cc1 (centres unmarked)

inhibition at 12.5 µM [1, 5]: 35% | inhibition of R1881 activation of p6.1luc ([1]; at 12.5 μM): 33% | inhibition at 20 µM ([2]; LNCaP): 33%
Compound: CC(C)(c1ccc(OCC(O)CI)cc1)c1ccc(OCC(O)CI)cc1 (centres unmarked) [drawing 125]

inhibition of R1881 activation of p6.1luc ([1]; at 12.5 μM): 42% and 29%
Compound: CC(C)(c1ccc(OCC(O)CI)cc1)c1ccc(OCC(O)CI)cc1 (centres unmarked) [drawing 126]

The remaining lines, values behind:

Compound: CC(C)(c1ccc(OCC(O)CCl)cc1)c1ccc(OCC(O)CCl)cc1 (racemic) [BADGE.2HCl, Racemic BADGE×2HCl]
LNCaP tumor volume at start of treatment, intratumoral ([4]; I.T. delivery): 109.6±17.4 mm^3 | size of LNCaP xenograft tumors, intratumoral injection ([4]; I.T. every 5 days, 20 mg/kg body weight): reduced the size of the tumors | LNCaP tumor volume at the duration (end) of the experiment, intratumoral ([4]; i.t. every 5 days, five doses): 79.0±63.6 mm^3

Compound: CC(C)(c1ccc(OCC(O)CCl)cc1)c1ccc(OCC(O)CCl)cc1 (centres unmarked) [drawing 123]
inhibition at 12.5 µM [1, 5]: 69% | inhibition of R1881 activation of p6.1luc ([1]; at 12.5 μM): 63% | inhibition at 12.5 µM ([2]; LNCaP, read-out: inhibition of Fsk activation of Ga14ARN, at 12.5 μM): 79%

Compound: CC(C)(c1ccc(OCC(O)CCl)cc1)c1ccc(OCC(O)CCl)cc1 (centres unmarked) [drawing 124]
inhibition of R1881 activation of p6.1luc ([1]; at 12.5 μM): 55% | inhibition of R1881 activation of p6.1luc ([1]; concentration not given): 34.8% | inhibition of Fsk activation of Ga14ARN ([2]; at 12.5 μM): 88%
